From patent publication US11667607B1 (ZYLORION HEALTH INC., priority 2022, dated 2023)

How the values were obtained:
[1] = Dynamic vapor sorption (DVS) moisture sorption isotherm, solid re-measured by HT-XRPD; format: physicochemical
Procedure: Moisture sorption isotherms were collected on a DVS Adventure system from Surface Measurement Systems (London, UK). Sample size was circa 10 mg of solid material. A full sorption and desorption isotherm was recorded by varying the relative humidity from 40-95-0-40% in steps of 10% at a constant temperature of 25° C. Weight equilibration per step was set at dm/dt of 0.002%/min. Afterwards the sample was measured by HT-XRPD.

[2] = Exposure of solids to 2 days at 40° C./75% RH (AAC), remeasured by XRPD; format: physicochemical; conditions: Table 1, lyophilization/recrystallization; ambient-dried solid after 2 days 40° C./75% RH; crystalline; pc = poor crystalline

CCc1cc(/C(C)=N/OCc2ccc(C3CCCCC3)c(C(F)(F)F)c2)ccc1CN1CC(C(=O)O)C1.CCc1cc(/C(C)=N/OCc2ccc(C3CCCCC3)c(C(F)(F)F)c2)ccc1CN1CC(C(=O)O)C1.O=C(O)/C=C/C(=O)O [crystalline Form A]
mass uptake at 80% RH ([1]; DVS, 25° C.): 2.4%
total mass difference between 0-95% RH ([1]; DVS, 25° C., RH cycle 40-95-0-40%): 3.6%
hygroscopicity according to the EP hygroscopicity classification ([1]; DVS, based on mass uptake at 80% RH): moderately hygroscopic
physical stability after the sorption-desorption cycle (XRPD of solid recovered after DVS) ([1]; after DVS cycle 40-95-0-40% RH, 25° C.): physically stable
HT-XRPD AAC-Amb-dried (solid form after AAC) [2]: Form A
